The target of series [1] is T1, CYP3A4 (Homo sapiens, UniProt P08684).
T1 construct: Human liver microsomes purchased from XenoTech, LLC (Lenexa, KS) was used; tissue XenoTech, LLC (Lenexa, KS); host or cells: human liver microsomes
Kind of series: CYP3A4 TDI in human liver microsomes (testosterone 6β-hydroxylation). Format: in vitro ADME. The following applies: 30 μM test compound, 60 min vs 0 min preincubation, solvent acetonitrile. On the procedure:
Human liver microsomes purchased from XenoTech, LLC (Lenexa, KS) was used. Test compounds were dissolved in acetonitrile or DMSO/acetonitrile (1:4, v/v). To a human liver microsomes solution adjusted with phosphate buffer (pH 7.4), the test compound solution was added to obtain a human liver microsomes reaction solution having the test compound concentration of 30 μM. To the human liver microsome reaction solution, NADPH production system was added, and the mixture was preincubated at 37° C. for 0 minutes or 60 minutes. After the preincubation, probe substrate testosterone was added, and testosterone metabolite 6β-hydroxytestosterone was analyzed by LC/MS/MS to evaluate CYP3A4 enzymatic activity.
The enzyme activity (% of control) at each preincubation point was calculated from the following equation: % of control={(activity of test compound addition group)/(activity of test compound non-addition group)}×100.
The remaining activity (% remaining) after 60 minutes of preincubation was calculated from the following equation: Remaining activity (%)={activity after 60 minutes (% of control60 min)}/{activity after 0 minutes (% of control0 min)}×100.

The test system of series [2] is CYP3A. Briefly: CYP induction (CYP3A activity in cryopreserved hepatocytes, P450-Glo CYP3A4 assay). The following applies: % of positive control; inducibility by 10 μmol/L rifampicin defined as 100%; hepatocytes treated 3 days. Type of series: in vitro ADME. Here is the method: Cryopreserved hepatocytes were thawed in a culture medium (In VitroGRO™ CP Medium, Celsis In Vitro Technologies, U.S.A.), and the resultant was added to BioCoat™ Matrigel®™ Matrix Thin-Layer 96 well (Becton, Dickinson and Company, U.S.A.) at a concentration of 40,000 cells/well. After culturing for 24 hours, the culture medium was removed, and replaced with an incubation medium (In VitroGRO™, HI Medium with Torpedo Antibiotic Mix, Celsis In Vitro Technologies, U.S.A.). Cells were cultured for an additional 3 days. The medium was removed on day 4, and the remained cells were treated in the induction medium containing a test compound for 3 days in the presence or absence of 10 μmol/L rifampicin. The induction medium was replaced every day. The test compound addition wells in the presence of 10 μmol/L rifampicin were used to evaluate the inhibitory effect of the test compound on the inducibility of the CYP3A activity by rifampicin. The CYP3A activity was evaluated by measuring luciferin generating amount after the addition of 2 μmol/L luciferin-IPA using IPA P450-Glo™ CYP3A4 assay systems (Promega Corporation, U.S.A.). All cultures were carried out under a humidified environment at 37° C., 5% CO2. The inducibility by rifampicin was defines as 100%, and the inducibility of the test compound (% of positive control) was calculated from the following equation: [(luciferin fluorescence intensity in the absence of rifampicin and the presence of test compound)−(luciferin fluorescence intensity in the absence of rifampicin and test compound)/(luciferin fluorescence intensity in the presence of rifampicin and the absence of test compound)−(Luciferin fluorescence intensity in the absence of rifampicin and test compound)]×100.

The target in series [3] is T2, human CaSR (Homo sapiens, UniProt P41180).
T2 construct: expressed in transfected cells; host or cells: CHO cells
T2 sequence (P41180 20-1078): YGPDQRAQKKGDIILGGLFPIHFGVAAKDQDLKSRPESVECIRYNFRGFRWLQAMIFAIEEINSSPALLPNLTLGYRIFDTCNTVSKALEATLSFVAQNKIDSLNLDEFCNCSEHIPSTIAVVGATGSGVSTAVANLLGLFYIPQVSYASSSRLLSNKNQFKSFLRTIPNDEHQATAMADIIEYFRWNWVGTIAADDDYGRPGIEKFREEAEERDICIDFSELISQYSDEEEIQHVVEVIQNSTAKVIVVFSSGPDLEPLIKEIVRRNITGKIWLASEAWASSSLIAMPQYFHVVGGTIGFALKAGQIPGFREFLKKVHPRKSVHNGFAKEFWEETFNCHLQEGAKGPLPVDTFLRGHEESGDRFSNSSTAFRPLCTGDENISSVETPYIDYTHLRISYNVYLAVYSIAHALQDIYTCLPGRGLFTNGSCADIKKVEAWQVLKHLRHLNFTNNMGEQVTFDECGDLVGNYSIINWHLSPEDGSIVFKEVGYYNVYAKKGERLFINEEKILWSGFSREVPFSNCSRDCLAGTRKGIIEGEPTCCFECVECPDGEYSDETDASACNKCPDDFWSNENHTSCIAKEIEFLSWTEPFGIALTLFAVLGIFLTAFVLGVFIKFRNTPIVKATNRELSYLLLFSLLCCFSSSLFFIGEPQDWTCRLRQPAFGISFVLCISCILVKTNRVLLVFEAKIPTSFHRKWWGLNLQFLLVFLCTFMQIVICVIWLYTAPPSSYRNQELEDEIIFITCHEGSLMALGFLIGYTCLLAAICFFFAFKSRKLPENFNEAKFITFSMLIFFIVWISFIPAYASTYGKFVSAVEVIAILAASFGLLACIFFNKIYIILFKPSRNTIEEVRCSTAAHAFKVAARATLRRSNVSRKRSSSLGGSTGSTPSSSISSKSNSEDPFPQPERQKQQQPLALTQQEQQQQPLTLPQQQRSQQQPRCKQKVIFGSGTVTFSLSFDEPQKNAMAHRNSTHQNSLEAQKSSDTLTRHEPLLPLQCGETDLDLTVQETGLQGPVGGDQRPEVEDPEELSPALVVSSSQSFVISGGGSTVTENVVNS
Briefly: Human CaSR antagonist activity (NFAT-Luciferase reporter in CHO cells). Format: cell-based. The following applies: CHO, CaCl2 final 1.3 mM, 100% = reference antagonist at 10 μM, read-out: Inhibition rate (%) at 3.3 μM. On the procedure: CaSR antagonist activity measurement was performed using Bright-Glo Luciferase assay system (Promega Corporation). CHO cells in which human CaSR and NFAT-Luciferase reporter gene were forcibly expressed were suspended in MEM alpha (Wako Pure Chemical Industries, Ltd.) containing 10% dialyzed serum (HyClone). The cells in suspension was seeded in 384-well white plate (Corning) at 10,000/20 μL/well, and cultured in an incubator of 37° C., 5% CO2 for one day. A diluent of Test compound was prepared with assay buffer (MEM alpha containing 10 mM HEPES (Life Technologies) and 10% dialysis serum). The diluent was added to the plate at 5 μL/well and allowed to stand at 37° C. for 10 minutes. Further, a diluent of 7.8 mM CaCl2 prepared with assay buffer (final concentration 1.3 mM) was added at 5 μl/well and allowed to stand in an incubator of 37° C., 5% CO2 for 2 hours. Bright-Glo reagents (Promega Corporation) were added at 10 μL/well, and the obtained mixture was stirred for 5 minutes, and then luminescence intensity was measured using Multi-label reader Envision (PerkinElmer, Inc.). The activity (%) of the test compound was calculated with the definitions in which the luminescence intensity when DMSO is added in place of the test compound is defined as 0% inhibition; and the luminescence intensity when (5R)—N-(1-ethyl-1-(4-ethylphenyl)propyl)-2,7,7-trimethyl-5-phenyl-4,5,6,7-tetrahydropyrazolo[1,5-a] Pyrimidine-3-carboxamide at final concentration of 10 μM is added is defined as 100% inhibition.
Background: Reporter assays use an easily measured gene product as a stand-in for the process of interest.

The subject of series [4] is aortic banding (TAC) models. The following applies: cited from earlier work.
Series [5] has as its system cardiac hypofunction. The following applies: dosing after cardiac loading; cited from earlier work.
In series [6] the test system is hypoxia-induced pulmonary hypertension (HPH) mice. The following applies: cited from earlier work.
The test system of series [7] is monocrotaline (MCT)-induced pulmonary hypertension rats. The following applies: cited from earlier work.

T1 sequence (P08684 whole entry): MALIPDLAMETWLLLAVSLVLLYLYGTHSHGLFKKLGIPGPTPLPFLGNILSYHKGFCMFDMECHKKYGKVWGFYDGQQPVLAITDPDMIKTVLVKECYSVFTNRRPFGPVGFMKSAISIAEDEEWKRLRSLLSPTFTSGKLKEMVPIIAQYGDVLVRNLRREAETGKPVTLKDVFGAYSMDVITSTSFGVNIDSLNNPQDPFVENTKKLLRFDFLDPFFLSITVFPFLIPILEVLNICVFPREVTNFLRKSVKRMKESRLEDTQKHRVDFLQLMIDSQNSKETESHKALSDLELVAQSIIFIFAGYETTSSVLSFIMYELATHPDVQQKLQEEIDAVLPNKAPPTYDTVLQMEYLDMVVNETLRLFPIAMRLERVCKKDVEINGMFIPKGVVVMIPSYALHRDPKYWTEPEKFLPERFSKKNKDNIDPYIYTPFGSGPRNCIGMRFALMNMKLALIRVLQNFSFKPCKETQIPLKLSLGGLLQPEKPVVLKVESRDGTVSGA

For `CCc1ccc(C(CC)(NC(=O)c2cnn3c2N[C@@H](c2ccccc2)CC3(C)C)C(=O)N[C@@H](C)C(N)=O)cc1` (single isomer, unassigned) [Example 4], the “Remaining Activity” value in series [1] came to 95.6%. The same compound yielded an Inducibility in series [2] of 20.8%. In addition, in series [3], the inhibition (usually the change of the read-out against control, counted positive when it falls) at 3.3 µM was found to be 102%.

In the case of `CCc1ccc(C(CC)(NC(=O)c2cnn3c2N[C@@H](c2ccccc2)CC3(C)C)C(=O)N[C@@H](CC)C(N)=O)cc1` (single isomer, unassigned) [Example 6], the “Remaining Activity” value in series [1] stood at 80.2%. The Inducibility in series [2] is 18.6%. In addition, in series [3], the inhibition at 3.3 µM was found to be 105%.

For `CCc1ccc(C(CC)(NC(=O)c2cnn3c2N[C@@H](c2ccccc2)CC3(C)C)C(=O)N[C@H](C(N)=O)C(C)C)cc1` (single isomer, unassigned) [Example 12], in series [1], the “Remaining Activity” value is listed as 74.3%. Moreover, the Inducibility in series [2] was 17.3%. Further, in series [3], the inhibition at 3.3 µM came to 99%.

Turning to `C[C@@H](N[C@H]1CCCC[C@@H]1NC(=O)c1ccc(Cl)cc1)c1cccc2ccccc12` [Calhex231], in series [4], the “Effect on cardiac hypertrophy” value is reported as “improves cardiac hypertrophy”. In addition, in series [5], the “Effect on cardiac hypofunction” value is on record as “fails to improve cardiac hypofunction”.

As to `CC(C)(Cc1ccc2ccccc2c1)NC[C@@H](O)COc1cccc(Cl)c1C#N` [NPS-2143], the “Effect on pulmonary hypertension pathology” value is recorded as “suppressed cardiac hypertrophy, elevated right ventricular systolic pressure, fibrosis of cardiac muscle tissue, pulmonary vascular remodeling or the like” in series [6] and “suppressed cardiac hypertrophy, elevated right ventricular systolic pressure, fibrosis of cardiac muscle tissue, pulmonary vascular remodeling or the like” in series [7].

The values are drawn from patent publication US12202832B2, “Heterocyclic compounds having a calcium-sensing receptor antagonistic activity” (TAKEDA PHARMACEUTICAL COMPANY LIMITED, priority 2017, dated 2025).
